Data published in patent US4594190A, “Quaternary salts of dibenzo[1,4]diazepinones, pyrido-[1,4]benzodiazepinones, pyrido[1,5]benzodiazepinones with antiulcer, antisecretory, spasmolytic and antimusarinic activities” (priority 1983, dated 1986).

Tests used:
in vivo = settings: mouse, oral, Swiss mice, 14 days observation
Procedure: The acute toxicity was determined by administering by oral route the substances under exam to Swiss mice, average weight 20±2 g. The observation period was 14 days. 10 Animals were used for each assayed dose.

[1] = tested on: carbachole-induced salivation; test: Carbachole salivation in the rat; format: in vivo, rat (male Sprague-Dawley); settings: 62.5 mg/kg p.o., one hour before carbachole 1 mg/kg i.p.
Procedure: CARBACHOLE SALIVATION IN THE RAT
The method cited by R. Turner: "Parasympatholytic Agents" in R. Turner "Screening Methods in Pharmacology" pag. […] Academic Press. […] Male Sprague-Dawley rats, mean weight 150±5 g, fasting since 24 hours, were used.
The salivation was induced by the intraperitoneal administration of 1 mg/kg of carbachole. The products under exam were administered orally one hour before the cholinergic stimulus.

gastric acid secretion = test: Gastric acid secretion in the pylorus ligated rat (antisecretory activity); format: in vivo, rat (male Sprague-Dawley); settings: 4 hours
Procedure: GASTRIC ACID SECRETION IN THE PYLORUS LIGATED RAT
Male Sprague-Dawley rats weighing 150±5 g fasting since 48 hours were used. Pylorus ligation was performed for 4 hours. The products under examination were administered by the oral route immediately after the ligation.

| SMILES | LD50 at 336 h (in vivo) | Salivation by carbachol- protection % [1] | % Antisecretory activity (gastric acid secretion; 6.25 mg/kg p.o.) | % Antisecretory activity (gastric acid secretion; 12.5 mg/kg p.o.) | % Antisecretory activity (gastric acid secretion; 25 mg/kg p.o.) |
| --- | --- | --- | --- | --- | --- |
| CC(C)(C)C(=O)OC[N+]1(C)CCC(C(=O)N2c3ccccc3C(=O)Nc3cccnc32)CC1 (stereo not shown) [Compound 15] | > 500 mg/kg | 10% | 9.6% | 27.7% | 41.8% |
| C[N+]1(CCC(=O)N2c3ccccc3C(=O)Nc3cccnc32)CCCCCC1 [Compound 13] | > 500 mg/kg | 30% | 19.2% | 47.5% | 69.6% |
| C[N+](C)(C)CC(=O)N1c2ccccc2C(=O)Nc2cccnc21 [Compound 3, 11-(2-Dimethylaminoacetyl)-5,11-dihydro-6H-pyrido-[2,3-b][1,4]-benzodiazepin-6-one iodomethylate] | < 500 mg/kg | 0% | 6.0% | 14.3% | 35.9% |
| C[N+]1(C)CC[N+](C)(CC(=O)N2c3ccccc3C(=O)Nc3cccnc32)CC1 [Compound 2, 11-[2-(4-Methylpiperazin-1-yl)acetyl]-5,11-dihydro-6H-pyrido[2,3-b][1,4]benzodiazepin-6-one N^1,4 bisiodomethylate] | > 500 mg/kg | 30% | 10.3% | 15.1% | 20.4% |
| C[N+]1(CC(=O)N2c3ccccc3C(=O)Nc3cccnc32)CCCCC1 [Compound 4, 11-[2-(Piperidin-1-yl)acetyl]-5,11-dihydro-6H-pyrido[2,3-b][1,4]benzodiazepin-6-one iodomethylate] | > 500 mg/kg | 70% | 22.7% | 48.1% | 70.3% |
